Laboratory results as given in patent US7700775B2, “Compounds and compositions for delivering active agents” (Emisphere Technologies, Inc., priority 2001, dated 2010).
Structures can show the parent of a compound that is named as a salt.

Experiment: not given
Settings: not given

| melting point | Structure (SMILES) |
| --- | --- |
| 107 to 109 °C | CCN(CC)CCNC(=O)c1cc(Cl)ccc1O (as salt: citrate) [Compound 1, N-[2-(diethylamino)ethyl]-5-chloro-2-hydroxybenzamide Mono-citrate] |
| 111 to 113 °C | CCN(CC)CCNC(=O)c1ccccc1O (as salt: citrate) [Compound 3, N-[2-(diethylamino)ethyl]-2-hydroxybenzamide Mono-citrate] |
| 129 to 132 °C | CN(C)c1ccc(CNC(=O)c2ccccc2O)cc1 [Compound 4, N-(4-dimethylaminobenzyl) salicylamide] |
| 70 to 73 °C | NC(=O)c1ccc(CCCCCCN2CCOCC2)cc1O [Compound 5, 4-(6-morpholin-4-ylhexyl)-salicylamide] |
| 151 to 153 °C | COc1ccc(C(=O)NCCCCCCCCN)c(O)c1 [Compound 18, N-(2-hydroxy-4-methoxybenzoyl)-1,8-diaminooctane] |

Experiment: Oral BIBN4096BS Delivery (plasma BIBN4096BS by LC/MS/MS after oral gavage with delivery agent compound)
Settings: previous studies; baseline (no delivery agent stated)
Experimental: Oral gavage (PO) dosing solutions of delivery agent compound and the Calcitonin gene-related peptide antagonist, 1-Piperidinecarboxamide. […] (BIBN4096BS) in water were prepared. […] The final dosing solutions were prepared by mixing the delivery agent compound with a BIBN4096BS stock solution and diluting to the desired volume (usually 1.0 mL). If necessary, the pH of the mixture was adjusted by the addition of aliquots of aqueous hydrochloric acid solution of an appropriate normality until the final pH of the dosing solution was below 7.0. The final compound amounts per dose were 25 mg/kg of BIBN4096BS, 200 mg/kg of delivery agent compound, in a total volume of 1 mL/kg.
The typical dosing and sampling protocols were as follows. Male Sprague-Dawley rats weighing between 200-250 g were fasted for 24 hours and administered ketamine (44 mg/kg) and chlorpromazine (1.5 mg/kg) 15 minutes prior to dosing. A dosing group of five rats was administered one of the dosing solutions. For oral gavage (PO) dosing, an 11 cm Rusch 8 French catheter was adapted to a 1 mL syringe with a pipette tip. The syringe was filled with dosing solution by drawing the solution through the catheter, which was then wiped dry. […] Plasma BIBN4096BS concentrations were quantified by using a liquid chromatography/mass spectrometry/mass spectrometry assay method using UV detection. […]

| baseline values of plasma BIBN4096BS | Structure (SMILES) |
| --- | --- |
| about 10 ng/mL | NCCCCC(NC(=O)C(Cc1cc(Br)c(O)c(Br)c1)NC(=O)N1CCC(N2Cc3ccccc3NC2=O)CC1)C(=O)N1CCN(c2ccncc2)CC1 (stereo not drawn) [BIBN4096BS, 1-Piperidinecarboxamide. N-[2-[[5-amino-1-[[4-(4-pyridinyl)-1-piperazinyl)carbonyl]pentyl]amino]-1-[(3,5-dibromo-4-hydroxyphenyl)methyl]-2-oxoethyl]-4(1,4-dihydro-2-oxo-3(2H0-quinazolinyl)-.[R-(R*,S*)]] |
